How the values were obtained:
[1] = Oral bioavailability in Sprague-Dawley rat at 10 mg/kg; type: ADME, organism-based; conditions: in vivo
[2] = AUC (0 to 8 hrs) in Sprague-Dawley rat at 10 mg/kg, po; type: ADME, organism-based; design: time < 8 hr, dose 10 mg/kg, route oral; conditions: plasma
[3] = AUC (0 to 8 hrs) in Beagle dog at 1 mg/kg, iv; type: ADME, organism-based, Canis lupus familiaris; design: time < 8 hr, dose 1 mg/kg, route intravenous; conditions: plasma
[4] = Apparent permeability of the compound in pig LLC-PK1 cells
[5] = AUC (0 to 8 hrs) in Sprague-Dawley rat at 10 mg/kg, ID administered as infusion; type: ADME, organism-based; design: time < 8 hr, dose 10 mg/kg, route intraduodenal; conditions: plasma
[6] = AUC (0 to 8 hrs) in Sprague-Dawley rat at 1 mg/kg, iv; type: ADME, organism-based; design: time < 8 hr, dose 1 mg/kg, route intravenous; conditions: plasma
[7] = test system: Rattus norvegicus; test: Bioavailability in Sprague-Dawley rat assessed as ertapenem at 10 mg/kg, ID administered as infusion; type: ADME, organism-based; conditions: in vivo, other
[8] = test system: Rattus norvegicus; test: AUC (0 to 8 hrs) in Sprague-Dawley rat assessed as (4R,5S,6S)-3-((3S,5S)-5-(3-(ethoxycarbonyl)phenylcarbamoyl)pyrrolidin-3-ylthio)-6-((R)-1-hydroxyethyl)-4-methyl-7-oxo-1-azabicyclo[3.2.0]hept-2-ene-2-carboxylic acid at 10 mg/kg, ID administered as infusion; type: ADME, organism-based, Plasma; design: time < 8 hr, dose 10 mg/kg, route intraduodenal; conditions: in vivo, other, BLD = below limit of detection
[9] = test system: Canis familiaris; test: AUC (0 to 8 hrs) in Beagle dog assessed as (4R,5S,6S)-3-((3S,5S)-5-(3-(ethoxycarbonyl)phenylcarbamoyl)pyrrolidin-3-ylthio)-6-((R)-1-hydroxyethyl)-4-methyl-7-oxo-1-azabicyclo[3.2.0]hept-2-ene-2-carboxylic acid at 10 mg/kg, ID administered as infusion; type: ADME, organism-based, Canis lupus familiaris, Plasma; design: time < 8 hr, dose 10 mg/kg, route intraduodenal; conditions: in vivo, other
[10] = Metabolic stability in rat plasma assessed as compound remaining at 50 uM after 60 mins by LC-MS/MS analysis; type: ADME, cell-free; conditions: read-out: Stability
[11] = Metabolic stability in human plasma assessed as compound remaining at 50 uM after 60 mins by LC-MS/MS analysis; type: ADME, cell-free; conditions: read-out: Stability
[12] = test system: Rattus norvegicus; test: AUC (0 to 8 hrs) in Sprague-Dawley rat assessed as 3-((2S,4S)-4-((4R,5S,6S)-2-(ethoxycarbonyl)-6-((R)-1-hydroxyethyl)-4-methyl-7-oxo-1-azabicyclo[3.2.0]hept-2-en-3-ylthio)pyrrolidine-2-carboxamido)benzoic acid at 10 mg/kg, ID administered as infusion; type: ADME, organism-based, Plasma; design: time < 8 hr, dose 10 mg/kg, route intraduodenal; conditions: in vivo, other, BLD = below limit of detection
[13] = test system: Canis familiaris; test: AUC (0 to 8 hrs) in Beagle dog assessed as 3-((2S,4S)-4-((4R,5S,6S)-2-(ethoxycarbonyl)-6-((R)-1-hydroxyethyl)-4-methyl-7-oxo-1-azabicyclo[3.2.0]hept-2-en-3-ylthio)pyrrolidine-2-carboxamido)benzoic acid at 10 mg/kg, ID administered as infusion; type: ADME, organism-based, Canis lupus familiaris, Plasma; design: time < 8 hr, dose 10 mg/kg, route intraduodenal; conditions: in vivo, other
[14] = test system: Canis familiaris; test: AUC (0 to 8 hrs) in Beagle dog assessed as ertapenem at 10 mg/kg, ID administered as infusion; type: ADME, organism-based, Canis lupus familiaris, Plasma; design: time < 8 hr, dose 10 mg/kg, route intraduodenal; conditions: in vivo, other
[15] = test system: Canis familiaris; test: Bioavailability in Beagle dog assessed as ertapenem at 10 mg/kg, ID administered as infusion; type: ADME, organism-based, Canis lupus familiaris; conditions: in vivo, other
[16] = Metabolic stability in dog plasma assessed as compound remaining at 50 uM after 60 mins by LC-MS/MS analysis; type: ADME, cell-free, Canis lupus familiaris; conditions: read-out: Stability
[17] = test system: Rattus norvegicus; test: AUC (0 to 8 hrs) in Sprague-Dawley rat assessed as ertapenem at 10 mg/kg, ID administered as infusion; type: ADME, organism-based, Plasma; design: time < 8 hr, dose 10 mg/kg, route intraduodenal; conditions: in vivo, other
[18] = Metabolic stability in monkey plasma assessed as compound remaining at 50 uM after 60 mins by LC-MS/MS analysis; type: ADME, cell-free, Macaca mulatta; conditions: rhesus monkey, read-out: Stability
[19] = test system: Rattus norvegicus; test: AUC (0 to 8 hrs) in Sprague-Dawley rat assessed as (4R,5S,6S)-3-((3S,5S)-5-(3-(ethoxycarbonyl)phenylcarbamoyl)pyrrolidin-3-ylthio)-6-((R)-1-hydroxyethyl)-4-methyl-7-oxo-1-azabicyclo[3.2.0]hept-2-ene-2-carboxylic acid at 4.4 mg/kg, ID administered as infusion; type: ADME, organism-based, Plasma; design: time < 8 hr, dose 4.4 mg/kg, route intraduodenal; conditions: in vivo, other
[20] = test system: Rattus norvegicus; test: AUC (0 to 8 hrs) in Sprague-Dawley rat assessed as ertapenem at 4.4 mg/kg, ID administered as infusion; type: ADME, organism-based, Plasma; design: time < 8 hr, dose 4.4 mg/kg, route intraduodenal; conditions: in vivo, other
[21] = test system: Rattus norvegicus; test: Bioavailability in Sprague-Dawley rat assessed as ertapenem at 4.4 mg/kg, ID administered as infusion; type: ADME, organism-based; conditions: in vivo, other
[22] = test system: Rattus norvegicus; test: AUC (0 to 8 hrs) in Sprague-Dawley rat assessed as 3-((2S,4S)-4-((4R,5S,6S)-2-(ethoxycarbonyl)-6-((R)-1-hydroxyethyl)-4-methyl-7-oxo-1-azabicyclo[3.2.0]hept-2-en-3-ylthio)pyrrolidine-2-carboxamido)benzoic acid at 4.4 mg/kg, ID administered as infusion; type: ADME, organism-based, Plasma; design: time < 8 hr, dose 4.4 mg/kg, route intraduodenal; conditions: in vivo, other
[23] = Drug metabolism in monkey liver microsomes assessed as tebipenem level after 15 mins; type: ADME, Macaca mulatta, Microsome; conditions: rhesus monkey, 0.25 h
[24] = Drug metabolism in dog liver microsomes assessed as tebipenem level after 15 mins; type: ADME, Canis lupus familiaris, Microsome; conditions: 0.25 h
[25] = test system: Liver microsomes; test: Drug metabolism in rat liver microsomes assessed as tebipenem level after 15 mins; type: ADME, Microsome; conditions: 0.25 h
[26] = test system: Hepatocyte; test: Drug metabolism in human hepatocytes assessed as tebipenem level after 15 mins; type: ADME, cell-based; conditions: 0.25 h
[27] = Drug metabolism in monkey hepatocytes assessed as tebipenem level after 15 mins; type: ADME, cell-based, Macaca mulatta, Hepatocyte; conditions: rhesus monkey, 0.25 h
[28] = test system: Hepatocyte; test: Drug metabolism in rat hepatocytes assessed as tebipenem level after 15 mins; type: ADME, cell-based; conditions: 0.25 h
[29] = test system: Liver microsomes; test: Drug metabolism in human liver microsomes assessed as tebipenem level after 15 mins; type: ADME, Microsome; conditions: 0.25 h
[30] = Drug metabolism in dog hepatocytes assessed as tebipenem level after 15 mins; type: ADME, cell-based, Canis lupus familiaris, Hepatocyte; conditions: 0.25 h

| SMILES | Papp [4] [nm/s] | remaining at 1 h, 50 µM [10] [%] | remaining at 1 h, 50 µM [11] [%] | AUC [14] [nM·h] | F [15] [%] | remaining at 1 h, 50 µM [16] [%] | remaining at 1 h, 50 µM [18] [%] | further results |
| --- | --- | --- | --- | --- | --- | --- | --- | --- |
| C[C@@H](O)[C@H]1C(=O)N2C(C(=O)O)=C(S[C@@H]3CN[C@H](C(=O)Nc4cccc(C(=O)O)c4)C3)[C@H](C)[C@H]12 | 5 | – | – | – | – | – | – | bioavailability [1]: 0.53%; AUC(0-t) at 8 h [2]: 390 nM·h; AUC(0-t) at 8 h [3]: 8900 nM·h; AUC(0-t) at 8 h [5]: 480 nM·h; AUC(0-t) at 8 h [6]: 7840 nM·h |
| Cc1oc(=O)oc1COC(=O)C1=C(S[C@@H]2CN[C@H](C(=O)Nc3cccc(C(=O)OCc4oc(=O)oc4C)c3)C2)[C@H](C)[C@@H]2[C@@H]([C@@H](C)O)C(=O)N12 | – | 1 | 1 | – | – | 3 | 2 | F [7]: 0.77%; AUC [17]: 300 nM·h |
| C[C@@H](O)[C@H]1C(=O)N2C3=C(S[C@@H]4CN[C@@H](C4)C(=O)Nc4cccc(c4)C(=O)OCCCOC3=O)[C@H](C)[C@H]12 | – | 0 | 17 | 440 | 0.53 | 79 | 49 | – |
| C[C@@H](O)[C@H]1C(=O)N2C(C(=O)OCOC(=O)C(C)(C)C)=C(SC3CN(C4=NCCS4)C3)[C@H](C)[C@H]12 [TEBIPENEM PIVOXIL] | – | 0 | 0 | – | – | 25 | 0 | Drug metabolism [23]: Active; Drug metabolism [24]: Active; Drug metabolism [25]: Active; Drug metabolism [26]: Active; Drug metabolism [27]: Active; Drug metabolism [28]: Active; Drug metabolism [29]: Active; Drug metabolism [30]: Active |
| C[C@@H](O)[C@H]1C(=O)N2C(C(=O)O)=C(SC3CN(C4=NCCS4)C3)[C@H](C)[C@H]12 [TEBIPENEM] | 7 | – | – | – | – | – | – | – |

Further lines, with some results ahead:

| Papp [4] [nm/s] | remaining at 1 h, 50 µM [10] [%] | remaining at 1 h, 50 µM [11] [%] | AUC [14] [nM·h] | F [15] [%] | remaining at 1 h, 50 µM [16] [%] | remaining at 1 h, 50 µM [18] [%] | SMILES | further results |
| --- | --- | --- | --- | --- | --- | --- | --- | --- |
| – | 2 | 36 | 1810 | 3 | 37 | – | C[C@@H](O)[C@H]1C(=O)N2C(C(=O)OCOC(=O)C(C)(C)C)=C(S[C@@H]3CN[C@H](C(=O)Nc4cccc(C(=O)OCOC(=O)C(C)(C)C)c4)C3)[C@H](C)[C@H]12 | F [7]: 0.37%; AUC [8]: BLD; AUC ([9]; BLD = below limit of detection): BLD; AUC [12]: BLD; AUC [13]: 40 nM·h; AUC [17]: 200 nM·h |
| 130 | 0 | 5 | 14300 | 18.1 | 75 | 77 | CCOC(=O)C1=C(S[C@@H]2CN[C@H](C(=O)Nc3cccc(C(=O)OCC)c3)C2)[C@H](C)[C@@H]2[C@@H]([C@@H](C)O)C(=O)N12 | AUC [9]: 3340 nM·h; AUC [19]: 420 nM·h; AUC [13]: 2170 nM·h; AUC [20]: 1540 nM·h; F [21]: 4.98%; AUC [22]: 70 nM·h |

Source: ChEMBL document CHEMBL2429826, “Design, synthesis, and evaluation of prodrugs of ertapenem” (ACS Med Chem Lett, 2013)
